experiment: Human HepG2 cell viability assay in 384 well format; format: toxicity, cell-based; set-up: dose 125 nL, time 70.5 hour; concentration not given beside the values; details: HepG2 cells, read-out: Inhibition

Compared with `N#Cc1ccc(N2CCN(c3ccc4nncn4n3)CC2)nc1`, `CN1CCc2c(C#N)c(NCc3ccccc3)n3cnnc3c2C1` is higher in cytotoxicity at 70.5 h: -2% for the first, 17.9% for the second.

First: COc1ccccc1CC1CCCN(CC(=O)N2CCOCC2)C1 (configuration not stated)
Second: Cc1ccc(CN2C[C@@H]3COC[C@@H](CC(=O)N4CCOCC4)[C@@H]3C2)s1
The cytotoxicity at 70.5 h of the first is higher: -6.05% for the first, -11% for the second.

Compared with `CCC(O)CN1CCN(C(=O)c2cccn2Cc2ccncc2)CC1` (configuration not stated), `O=S(=O)(c1cccs1)N1CC[C@@H](O)[C@@H]1Cc1ccncc1` is lower in cytotoxicity at 70.5 h: 21.3% for the first, 18% for the second.

Compared with `CCCN1Cc2cc(Br)ccc2OCC1=O`, `Cc1c(NC(=O)c2cccc(Br)c2)c(C(=O)N(C)C)nn1C` is lower in cytotoxicity at 70.5 h: 28.2% for the first, 22.7% for the second.

Going from `COC1CCN(c2ccc(NC(=O)Cn3cccc3)cc2)CC1` to `CC(=O)N1CCC(Oc2cccc(C#N)c2)CC1`, the cytotoxicity at 70.5 h rises from -11% to 13.4%.

Compared with `CCN(CC)S(=O)(=O)NCC1COc2ccccc2O1` (configuration not stated), `O=C(Cn1cccc2oc(=O)nc1-2)NCC1Cc2ccccc2O1` (configuration not stated) is lower in cytotoxicity at 70.5 h: 24.9% for the first, -5.36% for the second.

First: Cc1ncccc1CNCC1COC2(CCCCC2)O1 (configuration not stated)
Second: Cc1csc(C2(NCc3ccc(OCC(F)F)cc3)CCCC2)n1
The cytotoxicity at 70.5 h of the first is higher: 27.5% for the first, -5.7% for the second.

First: COCCOCC(=O)N1CCC2(CCCN(C3CCOCC3)C2=O)C1 (configuration not stated)
Second: Cn1cc(CN2C[C@@H]3COC[C@]3(C(=O)N3CCCO3)C2)cn1
The cytotoxicity at 70.5 h of the first is higher: 11.4% for the first, -1.04% for the second.

First: CCN(CC)S(=O)(=O)c1cc2c3c(c1)c(C)cc(=O)n3CCC2
Second: Cc1ccc(C(=O)N2C[C@H](NS(C)(=O)=O)[C@@H](C(C)C)C2)cc1F
The cytotoxicity at 70.5 h of the first is higher: 36% for the first, 2.48% for the second.

First: O=C(C1CC1)N1CCCC(C2=Nc3ccccc3S(=O)(=O)N2)C1 (configuration not stated)
Second: CCN1CC(C(=O)N2CC(Oc3ccccc3Cl)C2)CCC1=O (configuration not stated)
The cytotoxicity at 70.5 h of the first is lower: -4.52% for the first, -1.72% for the second.

First: CNC(=O)CNC(=O)NCc1cc2c(s1)CCC(C)(C)C2
Second: COc1cccc(CN(C)C(=O)c2ccc(NC(C)=O)s2)c1OC
The cytotoxicity at 70.5 h of the first is higher: 2.16% for the first, -62.7% for the second.

First: CC(C)(C)NC(=O)c1ccn(COc2ccccc2Cl)n1
Second: Cn1cnnc1CNC(=O)CCCOc1ccccc1Cl
The cytotoxicity at 70.5 h of the first is higher: -5.39% for the first, -14.3% for the second.

First: CCN1CC2(CCCCN2C(=O)c2ccn(C)n2)CC1=O (configuration not stated)
Second: CC(=O)N1CC(=O)N(c2cccnc2)CC12CCN(Cc1nccs1)C2 (configuration not stated)
The cytotoxicity at 70.5 h of the first is higher: 0.273% for the first, -0.821% for the second.

First: Cc1nc(C)n(CC2CCCCN2CC(=O)NCc2ccccn2)n1 (configuration not stated)
Second: Cc1noc(CNc2cccc(C(=O)N3CCCC(O)C3)c2)n1 (configuration not stated)
The cytotoxicity at 70.5 h of the first is higher: 2.56% for the first, -6.36% for the second.

Compared with `FC(F)(F)c1cccc(OC2CCN(Cc3ncc[nH]3)CC2)c1`, `CO[C@@H]1CCN(Cc2nccs2)C[C@@H]1Cc1ccccc1` is lower in cytotoxicity at 70.5 h: -0.255% for the first, -11.2% for the second.

Compared with `Cc1ccc(OCC(=O)N2CCN[C@H]3CS(=O)(=O)C[C@H]32)cn1`, `Cc1cc(N2CCOC(c3ccc(C(N)=O)cn3)C2)ncn1` (configuration not stated) is higher in cytotoxicity at 70.5 h: -16.7% for the first, 19.9% for the second.

First: CCSCCC(=O)NCc1cnn(-c2ccc(F)cc2F)c1
Second: CN(C)c1ncccc1CNS(=O)(=O)c1ccc(F)cc1F
The cytotoxicity at 70.5 h of the first is higher: 7.31% for the first, -12.9% for the second.

First: N#CC1(NC(=O)COc2cc(Cl)cc(Cl)c2)CCOCC1
Second: COc1cccc(CNC(=O)C(c2cccc(F)c2)N2CCOCC2)c1 (configuration not stated)
The cytotoxicity at 70.5 h of the first is lower: -5.72% for the first, 10.7% for the second.

Going from `CN(Cc1cccs1)c1cc(N2CCCC2CO)ncn1` (configuration not stated) to `CN(Cc1cccc(-n2cccn2)c1)Cc1cccs1`, the cytotoxicity at 70.5 h falls from -1.74% to -11%.

Compared with `Cc1nc(CN2CCN(c3nc4c(s3)c(C)nn4C)CC2)cs1`, `Cc1cc(-c2cnc(N3CCN(C)CC3)nc2C(C)C)on1` is lower in cytotoxicity at 70.5 h: -3.02% for the first, -3.07% for the second.

Compared with `Cc1nc(C2CCNCC2)cc(N2CCOc3ccccc3C2)n1`, `O=c1[nH]c(N2CCOCC2)nc2c1CN(Cc1cccnc1)CC2` is higher in cytotoxicity at 70.5 h: -4.26% for the first, 0.495% for the second.

Compared with `Cc1ccc2cnn(CCC(=O)Nc3c(C)nn(C)c3C)c2c1`, `Cc1nn(C(C)C)c(C)c1NC(=O)c1ccccc1` is higher in cytotoxicity at 70.5 h: -6.3% for the first, -0.962% for the second.

First: CN(C)C(=O)CCC[S+]([O-])Cc1ccc(Cl)c(Cl)c1 (configuration not stated)
Second: CCc1ccc(C(=O)NCc2ccnc(C)n2)cc1
The cytotoxicity at 70.5 h of the first is higher: -3.04% for the first, -8.72% for the second.

Compared with `CN(C)C(C(=O)N1CC(Oc2ccccc2F)C1)c1ccccc1F` (configuration not stated), `CS(=O)(=O)CCC(=O)N(Cc1c(F)cccc1F)C1CCCC1` is higher in cytotoxicity at 70.5 h: 12.3% for the first, 21% for the second.

First: COc1cc(NCC(=O)NC(C)(C#N)C(C)C)cc(OC)c1OC (configuration not stated)
Second: COc1c(Br)cccc1CCNC(=O)c1ncoc1C
The cytotoxicity at 70.5 h of the first is lower: -0.783% for the first, 9.9% for the second.

Compared with `Cc1noc(C)c1CN1C(=O)[C@H]2CC[C@@H]1CN(Cc1cccc(O)c1)C2`, `CCn1cc2c(n1)C(COCC1CC1)CN(C(=O)c1cc(C)on1)C2` (configuration not stated) is lower in cytotoxicity at 70.5 h: 5.47% for the first, -10.4% for the second.

Compared with `COc1ccc(COCC(O)CNC(=O)c2cc(C)cc(C)c2)cc1` (configuration not stated), `O=C(NCC(O)c1ccc(F)c(F)c1)c1cccnc1O` (configuration not stated) is higher in cytotoxicity at 70.5 h: -11.8% for the first, -3.92% for the second.

Going from `CS(=O)(=O)CCn1ccc(NC(=O)Cc2ccccc2Cl)n1` to `O=C1C(CS(=O)(=O)Nc2ccc(Cl)cc2)=NC(=O)n2cccc21`, the cytotoxicity at 70.5 h falls from -1.99% to -26.2%.

Going from `C=C(C)COc1cccc(C(=O)N(C)C(C)c2ccncn2)c1` (configuration not stated) to `COc1ncccc1CNC(=O)c1cc(Cl)ccn1`, the cytotoxicity at 70.5 h falls from -7.56% to -8.01%.

Compared with `NC(=O)[C@H]1CCCN(c2nccc(-c3ccncc3)n2)C1`, `O=C(O)[C@]12CCCN(Cc3nccs3)[C@@H]1CCN(c1cnccn1)C2` is lower in cytotoxicity at 70.5 h: -0.804% for the first, -5.49% for the second.

First: CS(=O)(=O)N1C[C@@H]2CC[C@H](C1)N(CCC(=O)NCc1ccco1)C2
Second: Cn1cccc1C(=O)NCc1cn2c(n1)CN(S(=O)(=O)C1CC1)CC2
The cytotoxicity at 70.5 h of the first is higher: 4.49% for the first, -10.3% for the second.

Going from `CCN1CCC2(CC1)CN(C(C)=O)c1ccc(C)cc12` to `O=C(CCc1ccccc1)N1CCn2cc(CN3CCCC3)nc2C1`, the cytotoxicity at 70.5 h falls from -7.76% to -11.7%.

Going from `CCCC(C(=O)NCCc1nc(C)cs1)N(C)C` (configuration not stated) to `Cc1csc(CCNC(=O)C2CCOC2)n1` (configuration not stated), the cytotoxicity at 70.5 h falls from 2.88% to -2.45%.

Going from `CC(OCC(F)(F)F)C(=O)N1CCCCC1` (configuration not stated) to `CNC(=O)NC(=O)CN1CCCN(CC(F)(F)F)CC1`, the cytotoxicity at 70.5 h falls from 0.611% to -7.82%.

Going from `C1CCC(c2nnc3sc(C4CCCO4)nn23)C1` (configuration not stated) to `O=c1oc2ccccc2n1CCN(CC1CCOC1)C1CC1` (configuration not stated), the cytotoxicity at 70.5 h falls from 10.1% to -11.1%.

Going from `O=c1c(NCCCO)c(N2CCN(c3ccccc3)CC2)c1=O` to `c1ccc(CCCN2CCOC(Cn3cccn3)C2)cc1` (configuration not stated), the cytotoxicity at 70.5 h falls from -2.43% to -6.46%.

Compared with `CC(NCCN1CCC(N(C)C)CC1)c1ccc(Cl)s1` (configuration not stated), `CC(C)c1nsc(N2CCOCC2)n1` is lower in cytotoxicity at 70.5 h: 14.9% for the first, -27.4% for the second.

First: Cn1ccnc1CN1C[C@@H](F)[C@@H](OCc2nc3cnccc3[nH]2)C1
Second: CCc1cnc(N2CC[C@H]3[C@@H]2CCC(=O)N3c2cccnc2)nc1
The cytotoxicity at 70.5 h of the first is higher: 13.1% for the first, -7.03% for the second.

First: COc1ccc(CNCCc2cc(F)cc3c2OCOC3)c(OC)c1
Second: Cc1cc(NC(=O)C(C)Oc2ccc3c(c2)OCO3)no1 (configuration not stated)
The cytotoxicity at 70.5 h of the first is higher: 25.5% for the first, -6.37% for the second.

Compared with `O=S(=O)(c1cccc(F)c1)N1C[C@@H]2COC[C@]2(COCC2CC2)C1`, `Cc1nnn2c1COC(CNC(=O)c1cccn1C)C2` (configuration not stated) is lower in cytotoxicity at 70.5 h: 4.21% for the first, -14.1% for the second.

Compared with `OCCOc1ccc(NCc2cccc3[nH]ccc23)cn1`, `COCCNc1nc2c(c(N3CCn4nc(C)cc4C3)n1)CCNCC2` is lower in cytotoxicity at 70.5 h: -3.37% for the first, -8.96% for the second.

— ChEMBL document CHEMBL3507680, “University of Dundee, Gates Library screen for HepG2 cell viability”
